40 compounds from patent US4755526A, “Method of inhibiting aromatase” (Eli Lilly and Company, priority 1984, dated 1988) can be followed below.

This assay deals with T1, aromatase (Rattus norvegicus, UniProt P22443).
T1 construct: ovarian microsomes are obtained from rats treated with pregnant mares serum gonadotropin; from tissue; host or cells: ovarian microsomes of rats treated with pregnant mares serum gonadotropin
T1 sequence (P22443 1-508): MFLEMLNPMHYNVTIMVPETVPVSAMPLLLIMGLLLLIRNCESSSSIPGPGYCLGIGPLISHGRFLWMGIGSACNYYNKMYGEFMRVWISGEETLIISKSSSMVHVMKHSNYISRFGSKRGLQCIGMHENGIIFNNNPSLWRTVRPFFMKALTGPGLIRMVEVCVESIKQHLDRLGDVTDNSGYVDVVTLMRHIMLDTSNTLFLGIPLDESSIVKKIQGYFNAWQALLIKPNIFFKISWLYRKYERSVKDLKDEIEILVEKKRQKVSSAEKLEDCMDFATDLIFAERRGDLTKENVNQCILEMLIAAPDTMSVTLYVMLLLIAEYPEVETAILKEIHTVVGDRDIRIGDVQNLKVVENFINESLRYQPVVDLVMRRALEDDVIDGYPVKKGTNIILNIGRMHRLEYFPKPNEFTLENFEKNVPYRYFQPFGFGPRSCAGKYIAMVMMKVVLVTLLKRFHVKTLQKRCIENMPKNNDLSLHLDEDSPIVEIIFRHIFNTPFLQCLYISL
The experiment in a line: Aromatase inhibition in the rat ovarian microsome assay. The settings on record: EC50: concentration required to achieve 50% inhibition of aromatase activity, substrate (androstenedione) concentration 0.1 μM. The class given is biochemical.

Where a name gives a salt, the structure may show the parent alone.

Method: In this test system, ovarian microsomes are obtained from rats treated with pregnant mares serum gonadotropin. Test compounds are added to reaction vials containing 0.1 μM 4-androstene-3,17-dione, 100,000 dpm 1,2[^3 H]-androstenedione, the microsomes and a NADPH generating system. The concentrations of the inhibitors tested ranged between 0.005 and 10 μM.

The term EC50 denotes the midpoint of the concentration-response curve. Higher therefore signals a need for much substance. In turn, `Clc1ccc(Cn2ccnc2)cc1` [1-(4-chlorobenzyl)imidazole hydrochloride] came in with an EC50 of 450 nM.

`c1ccc(-c2ccc(Cn3ccnc3)cc2)cc1` [1-[(1,1'-biphenyl)-4-ylmethyl]-1H--imidazole hydrochloride] had a half-maximal effective concentration (EC50) of 1650 nM. This EC50 is about 3.7-fold higher than that of the compound before.

For the compound `C#CC(c1ccc(Cl)cc1)(c1ccc(Cl)cc1)n1ccnc1` [1-[1,1-bis(4-chlorophenyl)-2-propynyl]-1H--imidazole], the EC50 was under 50 nM.

As for `Clc1ccc(Cn2cncn2)cc1` [1-(4-chlorobenzyl)-1H--1,2,4-triazole], the EC50 is over 5000 nM.

`Clc1ccc(Cn2ccnc2)cc1Cl` [1-[(3,4-dichlorophenyl)methyl]-1H--imidazole hydrochloride] came in with an EC50 of 320 nM.

`CCOc1ccccc1C(CC)n1ccnc1` (stereo not shown) [1-[1-(2-ethoxyphenyl)propyl]-1H--imidazole nitrate] registered an EC50 of 140 nM.

With `COc1ccc(C(c2ccccc2)(c2ccc(OC)cc2)n2ccnc2)cc1` [1-[α,α-bis(4-methoxyphenyl)benzyl]imidazole], the EC50 is 64 nM.

`Fc1ccc(C(c2ccc(Cl)cc2)n2cncn2)cc1` (stereo not shown) [1-[(4-chlorophenyl)(4-fluorophenyl)methyl]-1H--1,2,4-triazole] displayed an EC50 of under 50 nM.

For the compound `O=[N+]([O-])c1cccc(Cn2ccnc2)c1` [1-[(3-nitrophenyl)methyl]-1H--imidazole hydrochloride], the EC50 amounted to 1130 nM.

`Clc1ccc(C(c2cccnc2)(c2ccccc2Cl)n2ccnc2)cc1` (stereo not shown) [3-[(2-chlorophenyl)(4-chlorophenyl)-1H--imidazol-1-ylmethyl]pyridine] came in with an EC50 of 86 nM.

`CC(c1ccccc1Cl)n1ccnc1` (stereo not shown) [1-[1-(2-chlorophenyl)ethyl]-1H--imidazole hydrochloride] gave a half-maximal effective concentration (EC50) of 2500 nM.

For `Cc1ccccc1Cn1ccnc1` [1-[(2-methylphenyl)methyl]-1H--imidazole hydrochloride], the EC50 was 1500 nM. Against the preceding compound, the EC50 is about 1.7-fold lower.

As to `c1ccc(C(c2ccccc2)(c2cccc3ccccc23)n2ccnc2)cc1` [1-(1-naphthalenyldiphenylmethyl)-1H--imidazole], a half-maximal effect (EC50) was put at 96 nM.

`Clc1ccccc1C(c1ccccc1Cl)n1cncn1` [1-[bis(2-chlorophenyl)methyl]-1H--1,2,4-triazole] showed an EC50 of over 5000 nM.

Take `c1ccc(C(c2ccccc2)(c2ccccn2)n2ccnc2)cc1` [2-(1H--imidazol-1-yldiphenylmethyl)pyridine]: the EC50 is under 50 nM.

`Fc1ccc(C(c2ccc(F)cc2)n2cncn2)cc1` [1-[bis(4-fluorophenyl)methyl]-1H--1,2,4-triazole] gave an EC50 of 94 nM.

Compound `CC(c1ccccc1)n1ccnc1` (stereo not shown) [1-(1-phenylethyl)-1H--imidazole hydrochloride] had an EC50 of 1050 nM.

For `Fc1ccccc1Cn1ccnc1` [1-[(2-fluorophenyl)methyl]-1H--imidazole nitrate], a half-maximal response (EC50) required 2650 nM.

In turn, `c1ccc(C(c2ccccc2)(c2ccncc2)n2cncn2)cc1` [4-(diphenyl-1H--1,2,4-triazole-1-ylmethyl)pyridine] had an EC50 of 160 nM.

With `CC(C)C(c1cccc2ccccc12)n1ccnc1` (stereo not shown) [1-[2-methyl-1-(1-naphthalenyl)propyl]-1H--imidazole nitrate], the EC50 was 410 nM.

For the compound `Clc1ccccc1C(c1cccnc1)(c1ccccc1Cl)n1cncn1` [3-[bis(2-chlorophenyl)-1H--1,2,4-triazol-1-ylmethyl]pyridine], the EC50 stood at 720 nM.

In turn, `c1ccc(C(c2ccccc2)n2cncn2)cc1` [1-diphenylmethyl-1H--1,2,4-triazole] came in with an EC50 of over 5000 nM.

`Clc1ccccc1C(c1cccnc1)(c1ccccc1Cl)n1ccnc1` [3-[bis(2-chlorophenyl)-1H--imidazol-1-ylmethyl]pyridine]: a half-maximal response (EC50) required 305 nM.

On to `Clc1ccc(Cl)c(C(c2cccnc2)(c2cc(Cl)ccc2Cl)n2ccnc2)c1` [3-(bis[2,5-dichlorophenyl]-1H--imidazol-1-ylmethyl)pyridine], for which a half-maximal response (EC50) required 210 nM.

As to `COc1ccc(C(c2ccccc2)(c2ccc(OC)cc2)n2cncn2)cc1` [1-[bis(4-methoxyphenyl)phenylmethyl]-1H--1,2,4-triazole], the EC50 is 240 nM.

Turning to `Fc1ccc(C(c2ccccc2)(c2ccc(F)cc2)n2ccnc2)cc1` [1-bis(4-fluorophenyl)phenylmethyl]-1H--imidazole], the EC50 amounted to 40 nM.

Take `Fc1ccc(C(c2ccc(Cl)cc2)n2cnnc2)cc1` (stereo not shown) [4-[(4-chlorophenyl)(4-fluorophenyl)methyl]-4H--1,2,4-triazole]: the EC50 came out at 80 nM.

Take `Cc1nccn1C(c1ccc(Cl)cc1)(c1ccc(Cl)cc1)c1ccc(Cl)cc1` [1-tris(4-chlorophenyl)methyl-2-methyl-1H--imidazole]: the EC50 was 270 nM.

The compound `Clc1ccc(Cn2ccnc2)c(Cl)c1` [1-[(2,4-dichlorophenyl)methyl]-1H--imidazole hydrochloride] displayed a concentration for a half-maximal effect (EC50) of 730 nM.

The compound `FC(F)(F)c1ccccc1Cn1ccnc1` [1-[(2-trifluoromethylphenyl)methyl]-1H--imidazole hydrochloride] displayed an EC50 of 1750 nM.

Compound `Clc1ccc(Cn2ccnc2)cc1` [1-(4-chlorobenzyl)-1H--imidazole] displayed an EC50 of 140 nM.

The compound `c1ccc(Cn2ccnc2)cc1` [1-benzylimidazole] displayed an EC50 of 2800 nM.

Compound `Clc1ccc(C(c2ccc(Cl)cc2)(c2ccc(Cl)cc2)n2cncn2)cc1` [1-[tris(4-chlorophenyl)methyl]-1H--1,2,4-triazole] displayed a concentration for a half-maximal effect (EC50) of 420 nM.

For `COc1ccccc1Cn1ccnc1` [1-[(2-methoxyphenyl)methyl]-1H--imidazole hydrochloride], it took 2100 nM to reach a half-maximal effect (EC50).

`c1ccc(CCOc2ccccc2Cn2ccnc2)cc1` [1-[(2-[2-phenylethoxy]phenyl)methyl]-1H--imidazole nitrate] displayed an EC50 of 86 nM. This EC50 is about 24-fold lower than that of the compound before.

`Clc1ccc(C(c2ccc(Cl)cc2)(c2ccc(Cl)cc2)n2ccnc2)cc1` [1-tris(4-chlorophenyl)methyl-1H--imidazole] came in with an EC50 of 270 nM.

Regarding `Clc1ccccc1Cn1ccnc1` [1-(2-chlorobenzyl)imidazole hydrochloride], the EC50 stood at 3500 nM.

Turning to `Fc1ccc(Cn2ccnc2)cc1` [1-[(4-fluorophenyl)methyl]-1H--imidazole nitrate], the EC50 turned out to be 630 nM.

Turning to `Fc1ccc(C(c2ccccc2)(c2ccc(F)cc2)n2cncn2)cc1` [1-[bis(4-fluorophenyl)phenylmethyl]-1H--1,2,4-triazole], the EC50 was 80 nM.

With `Clc1cccc(Cn2ccnc2)c1` [1-(3-chlorobenzyl)imidazole], the response was half-maximal at 3600 nM (EC50). Against the preceding compound, the EC50 is about 45-fold higher.
